For one experiment, the system named is people. The arrangement: method as in Knight et al., 2009. Conditions: placebo approximately 9%; ref Knight et al., 2009; cited from earlier work.
The subject of another experiment is rats. Details: method as in Maurer et al., 2017. The conditions noted are these: ref Maurer et al., 2017; cited from earlier work.
For the next experiment, the system named is α4β2* nAChRs. Details: method as in earlier work. The conditions noted are these: agonist-induced signaling; ref Wang et al., 2015; Grupe et al., 2013; Appiani et al., 2024; Jin et al., 2014; read-out: EC50 on α4β2* nAChR signaling; cited from earlier work.
The target of experiment [1] is human (α4)2(β2)2β2/α4 (α4β2*) nAChRs (Homo sapiens, UniProt P17787+P43681). As to the kind of experiment: FLEXstation membrane potential assay in HEK cells stably expressing α4β2* nAChRs. Format: cell-based. Conditions: nicotine 0.001–50 μM, ±SEM. From the text: (§1) Human embryonic kidney (HEK) cell lines stably expressing human (α4)2(β2)2β2/α4 (α4β2*) nAChRs, (α4)2(β2)2α5 nAChRs, (α4)2(β2)2β3 nAChRs, (α3)2(β4)2α3/β4 (α3β4*) nAChRs, (α3)2(β2)2α3/β2 (α3β2*) nAChRs, (α3)2(β4)2α5 nAChRs, or (α3)2(β2)2α5 nAChRs were maintained as described previously ([Wang et al., 2015]; [Kuryatov et al., 2005]; [Caligiuri et al., 2022]). The FLEXstation bench top scanning fluorometer from Molecular Devices was used to assay nAChR function in these cells, according to published protocols ([Wang et al., 2015]; [Kuryatov et al., 2005]). The membrane potential kit (Molecular Devices) was used according to the manufacturer’s protocols. Serial dilutions of SR9883 were manually added to the assay plate 15 min prior to recording. […] Compound dilutions were prepared in V-shaped 96-well plates (Fisher Scientific Co.) and added to cell culture wells at a rate of 20 μL s^−1 during recording. Cells were incubated at 29°C for 6–20 h prior to assays to upregulate nAChRs ([Wang et al., 2015]; [Kuryatov et al., 2005]). Data points were averaged from 3 to 4 responses from separate wells. Potency and efficacy were calculated using the Hill equation as described previously ([Wang et al., 2015]).
(§2) Concentration-response curves of SR9883 actions in nAChR-expressing HEK cells and oocytes were fitted to the Hill equation using a nonlinear least squares curve fit method and efficacy and potency values were calculated as previously described ([Wang et al., 2015]). Plasma and brain levels of SR9983 after oral administration were compared using a two-tailed paired t test. […] For the ICSS threshold experiment, percentages of baseline reward threshold scores were calculated by expressing the absolute threshold scores as a percentage of the scores obtained during baseline. The baseline values were the mean thresholds on the three sessions prior to drug injections. Response latency data were analyzed in the same manner as the threshold data. […] Effects of SR9883 on responding for food pellets in rats was analyzed by a two-tailed paired t test. […] Significant main or interaction effects in ANOVAs were followed by Bonferroni or Newman–Keuls post-hoc tests as appropriate. All statistical analyses were performed using GraphPad Prism software with α set to 0.05.

The target of experiment [2] is T1, human (α4)2(β2)2α5 nAChRs (Homo sapiens, UniProt P17787+P30532+P43681).
T1 construct: expressed in transfected cells
As to the kind of experiment: FLEXstation membrane potential assay in HEK cells stably expressing (α4)2(β2)2α5 nAChRs. Conditions: nicotine 0.001–50 μM, ±SEM. Format: cell-based.
Source text: as §1, §2

Structures can show the parent of a compound that is named as a salt.

For orientation: EC50 means the concentration giving half of the maximal effect.

Chain of human (α4)2(β2)2β2/α4 (α4β2*) nAChRs (P43681 27-627): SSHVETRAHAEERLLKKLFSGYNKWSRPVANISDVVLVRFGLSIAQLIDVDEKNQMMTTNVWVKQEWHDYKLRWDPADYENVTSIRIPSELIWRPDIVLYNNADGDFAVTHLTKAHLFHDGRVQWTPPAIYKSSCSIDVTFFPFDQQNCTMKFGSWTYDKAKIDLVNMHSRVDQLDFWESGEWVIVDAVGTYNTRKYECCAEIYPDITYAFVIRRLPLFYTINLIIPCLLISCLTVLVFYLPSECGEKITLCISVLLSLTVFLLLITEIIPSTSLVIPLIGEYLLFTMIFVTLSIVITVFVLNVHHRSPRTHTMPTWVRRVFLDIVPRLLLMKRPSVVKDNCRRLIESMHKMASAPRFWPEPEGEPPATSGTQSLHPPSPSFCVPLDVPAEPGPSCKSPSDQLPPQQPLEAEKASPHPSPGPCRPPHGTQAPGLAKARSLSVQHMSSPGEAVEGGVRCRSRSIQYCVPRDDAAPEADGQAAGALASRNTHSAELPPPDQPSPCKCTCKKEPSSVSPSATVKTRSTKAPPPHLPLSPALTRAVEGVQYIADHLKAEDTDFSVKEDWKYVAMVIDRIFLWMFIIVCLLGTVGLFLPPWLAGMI
Chain of human (α4)2(β2)2β2/α4 (α4β2*) nAChRs (P17787 26-502): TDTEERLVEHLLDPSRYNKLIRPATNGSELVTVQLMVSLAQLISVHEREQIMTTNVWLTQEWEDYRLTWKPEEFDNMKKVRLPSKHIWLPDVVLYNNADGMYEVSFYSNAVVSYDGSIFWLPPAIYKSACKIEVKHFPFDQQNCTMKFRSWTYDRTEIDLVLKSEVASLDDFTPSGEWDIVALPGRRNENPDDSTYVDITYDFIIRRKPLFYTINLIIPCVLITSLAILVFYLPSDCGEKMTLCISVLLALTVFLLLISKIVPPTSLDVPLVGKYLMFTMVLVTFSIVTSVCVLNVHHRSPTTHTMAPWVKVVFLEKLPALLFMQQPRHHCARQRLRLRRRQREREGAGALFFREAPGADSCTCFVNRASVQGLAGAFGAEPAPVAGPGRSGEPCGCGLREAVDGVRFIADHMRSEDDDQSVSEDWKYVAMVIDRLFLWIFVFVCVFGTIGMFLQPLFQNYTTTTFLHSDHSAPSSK
T1 sequence (P43681 29-627 limits assumed): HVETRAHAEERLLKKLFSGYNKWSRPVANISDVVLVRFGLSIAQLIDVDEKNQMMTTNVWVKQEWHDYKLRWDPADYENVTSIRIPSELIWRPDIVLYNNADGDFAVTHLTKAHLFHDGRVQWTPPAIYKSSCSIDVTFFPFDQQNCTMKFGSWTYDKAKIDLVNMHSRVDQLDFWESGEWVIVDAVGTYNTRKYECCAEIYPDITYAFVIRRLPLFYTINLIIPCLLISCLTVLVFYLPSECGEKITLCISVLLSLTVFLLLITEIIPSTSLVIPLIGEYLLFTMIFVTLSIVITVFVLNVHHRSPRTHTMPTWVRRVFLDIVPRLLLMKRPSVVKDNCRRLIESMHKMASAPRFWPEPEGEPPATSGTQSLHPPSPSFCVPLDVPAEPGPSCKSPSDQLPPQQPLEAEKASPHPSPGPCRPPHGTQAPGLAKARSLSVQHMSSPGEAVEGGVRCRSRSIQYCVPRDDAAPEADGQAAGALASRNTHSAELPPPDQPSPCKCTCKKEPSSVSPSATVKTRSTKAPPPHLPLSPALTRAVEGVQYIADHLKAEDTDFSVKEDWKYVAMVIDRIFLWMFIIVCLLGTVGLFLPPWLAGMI
T1 sequence (P17787 26-502): as the sequence (P17787 26-502) above
T1 sequence (P30532 23-468): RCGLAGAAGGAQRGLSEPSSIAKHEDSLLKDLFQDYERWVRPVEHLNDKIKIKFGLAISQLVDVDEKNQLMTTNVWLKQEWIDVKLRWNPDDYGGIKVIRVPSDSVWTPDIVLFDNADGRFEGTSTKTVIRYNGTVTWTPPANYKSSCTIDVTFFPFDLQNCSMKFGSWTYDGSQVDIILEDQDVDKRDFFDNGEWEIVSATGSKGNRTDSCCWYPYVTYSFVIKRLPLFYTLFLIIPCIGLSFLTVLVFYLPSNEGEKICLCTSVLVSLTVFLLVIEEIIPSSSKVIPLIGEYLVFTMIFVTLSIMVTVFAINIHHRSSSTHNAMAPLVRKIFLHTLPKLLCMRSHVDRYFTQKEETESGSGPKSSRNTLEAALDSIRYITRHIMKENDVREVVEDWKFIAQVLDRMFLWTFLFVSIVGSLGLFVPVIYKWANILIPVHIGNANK

Consider `c1cnc2cc3c(cc2n1)[C@@H]1CNC[C@H]3C1` [Chantix, varenicline], for which, in the experiment on people, the “People remaining abstinent after 1 year of a quit attempt” value was “approximately 23%”.

As for `N#Cc1cccc(-c2nc(-c3cccnc3)no2)c1` [NS9283, 3-[3-(3-pyridyl)-1,2,4-oxadiazol-5-yl]benzonitrile], in the experiment on rats, the “Intravenous nicotine self-administration behavior” value was “decrease”. Further, in the experiment with α4β2* nAChRs, the EC50 is roughly 1 µM.

On to `CC(NC(C)(C)C)C(=O)c1cccc(Cl)c1` (stereo not drawn) [Zyban, bupropion], for which the “People remaining abstinent after 1 year of a quit attempt” value in the experiment on people is roughly 16%.

In the case of `CN1CCC[C@H]1c1cccnc1` [nicotine, (−)-Nicotine hydrogen tartrate salt, reference compound], the Efficacy in experiment [1] (+SR9883 (10 μM)) came out at 87.20 ± 1.68%; in experiment [1] (−SR9883) it was 96.89 ± 2.82%; in experiment [2] (+SR9883 (10 μM)), 92.69 ± 2.19%; in experiment [2] (−SR9883) it was 100.49 ± 3.89%. Moreover, the nHill of nicotine in experiment [1] (+SR9883 (10 μM)) worked out at 1.0749 ± 0.0928; in experiment [1] (−SR9883) it was 0.8145 ± 0.0740; in experiment [2] (+SR9883 (10 μM)), 1.2934 ± 0.1439; in experiment [2] (−SR9883), 0.7395 ± 0.0767.

The record behind these values is publication PMC11428108 (Frontiers in Molecular Neuroscience, 2024).
